Drawing on US20250091989A1, “SMALL MOLECULE PROTEIN SYNTHESIS MODULATORS” (Interdict Bio, Inc., priority 2023, published 2025), this text covers IC50 for 25 molecules.

Assay type in all cases: biochemical
Conditions in all cases: HeLa S3 lysate, sfGFP/mCherry ratio, 2 hrs at 30° C.

Experiment [1] deals with MYC. Briefly: In vitro transcription-translation (IVTT) reporter assay, MYC test sequence. The text has this: (§1) All reporter constructs have been cloned into the pT7CFE1-CHis plasmid (ThermoFisher #88860) using Gibson assembly procedures (NEB #E2611L). The parental pT7CFE1-CHis plasmid contains an EMCV IRES at the 5′UTR for translation initiation, a multiple-cloning site (MCS) for gene insertion, an optional C-terminal His-epitope tag, and polyA sequence in the 3′UTR to regulate mRNA stability. All reporters are designed to be inserted at the MCS to include a red fluorescent protein (mCherry), P2A self-cleaving peptide which releases the preceding mCherry protein product, and a fusion open reading frame containing a 3×FLAG epitope, a peptide sequence of interest (TEST), and green fluorescent protein (sfGFP).
(§2) Construct Plasmid Preparation: All plasmids are isolated from MACH1 cells (ThermoFisher) grown overnight in ampicillin-containing luria broth, and purified using ZymoPure Express Plasmid Midiprep Kit (Zymo Research). Constructs are sequenced verified and diluted to a working concentration of 110 ng/μL.
(§3) HeLa S3 Lysate Preparation: HeLa S3 cell pellets are acquired from Ipracell/Ipratech (Belgium) and shipped as 4 mL frozen cell pellets on dry ice for storage at −80° C. until use. The procedure for lysate preparation is as follows. Prepare 1× Lysis Buffer, cold and stored on ice:
(§4) Each preparation takes 8 cell pellets (4 ml packed volume each, approximately 1.0×10^9 cells per pellet). Thaw cell pellets from −80° C. on ice for 90 mins. Lay pellets horizontally on top of the ice and rotate every 30 mins to ensure even thawing. Once thawed, add 4 mL of cold lysis buffer to each pellet, and using a serological pipet, gently pipet up and down to break up clumps. Incubate resuspended cells in ice for an additional 30 mins (plunged into ice). During 30 min incubation, rinse and RNase-zap (Ambion) glass dounces (use loose pestle “A”), gently dry and place on ice until needed. Prepare RNase-free Eppendorf tubes for spinning and for batch storage. Add batch labels to 1.5-1.7 mL RNase-free microcentrifuge tubes (labeling scheme below). Each batch will have an extra 1.5-1.7 mL RNase-free microcentrifuge tube for 40 μL of lysate, label the top of this tube (labeling scheme below). After 30 min incubation, transfer all 8 mL of cell pellet to dounce. Cell lysis is complete after douncing 100 times. Aliquot cell lysis into 1.5-1.7 mL temporary-microcentrifuge tubes. Place tubes in centrifuge with “fins” out, and spin at 1,200 xg for 5 mins. After the first spin use a 1 mL pipet to resuspend each tube and repeat spin. This acts as an additional lysis step, is more vigorous and increases lysate yield. During second spin get liquid N2 and a fresh conical tube on ice.
(§5) After spin is complete, transfer supernatant (lysate) from microcentrifuge tubes into the 50 mL conical tube and keep on ice. Repeat steps 10-14 for all other cell pellets until completed. Once all cell lysate has been transferred to the 50 mL conical tube pipet to mix so the solution is homogenous. Transfer 1 mL of lysate into batch-labeled microcentrifuge tubes and flash freeze in liquid nitrogen. Be sure to pipet up and down to mix throughout transfer step. Place all tubes in the […] for long-term storage.
(§6) In vitro transcription-translation assay setup: Each assay includes a master mix containing lysate and shared components, a 96-well plate containing compound titrations for testing, a 96-well DNA plate with reporter constructs to be tested, 96-well skirted PCR plates, and 96-well flat-bottom, black, fluorescent assay plates. […]
Background: In a reporter assay the amount or activity of a reporter protein is the signal.

Experiment [2] deals with KRAS G12D. Description: In vitro transcription-translation (IVTT) reporter assay, KRAS G12D test sequence.
Excerpt: as §1, §2, §3, §4, §5, §6

The test system of experiment [3] is ALK. Description: In vitro transcription-translation (IVTT) reporter assay, ALK test sequence.
Excerpt: as §1, §2, §3, §4, §5, §6

Consider `C=C(F)C(=O)O[C@@H]1[C@@H](O)CN[C@@H]1Cc1ccc(OC)cc1` [V0081, (2R,3S,4S)-4-hydroxy-2-[(4-methoxyphenyl)methyl]pyrrolidin-3-yl 2-fluoroprop-2-enoate], for which the IC50 in experiment [1], in experiment [2] and in experiment [3] was greater than 30 µM each time.
Regarding `COc1ccc(C[C@H]2NC[C@H](O)[C@H]2OC(=O)c2ccc(C(=O)C(F)(F)F)cc2)cc1` [V0092, (2R,3S,4S)-4-hydroxy-2-[(4-methoxyphenyl)methyl]pyrrolidin-3-yl 4-(2,2,2-trifluoroacetyl)benzoate], the IC50 in experiment [1], in experiment [2] and in experiment [3] was greater than 30 µM in each case.
With `COc1ccc(C[C@H]2NC[C@H](O)[C@H]2OC(=O)C2COC2)cc1` [V0106, (2R,3S,4S)-4-hydroxy-2-[(4-methoxyphenyl)methyl]pyrrolidin-3-yl oxetane-3-carboxylate], the concentration for half-maximal inhibition (IC50) was 10 to 20 µM in experiment [1], 20 to 30 µM in experiment [2] and less than 10 µM in experiment [3].
Taken in the same sequence, the figures for `COc1ccc(C[C@H]2NC[C@H](O)[C@H]2OC(=O)C2CNC2)cc1` [V0107, (2R,3S,4S)-4-hydroxy-2-[(4-methoxyphenyl)methyl]pyrrolidin-3-yl azetidine-3-carboxylate] were greater than 30 µM, greater than 30 µM and 20 to 30 µM.
On to `COc1ccc(C[C@H]2NC[C@H](O)[C@H]2OC(=O)C2CC3(CNC3)C2)cc1` [V0108, (2R,3S,4S)-4-hydroxy-2-[(4-methoxyphenyl)methyl]pyrrolidin-3-yl 2-azaspiro[3.3]heptane-6-carboxylate], for which the IC50 in experiment [1] and in experiment [2] was greater than 30 µM in each case.
With `COc1ccc(C[C@H]2NC[C@H](O)[C@H]2OC(=O)Cc2ccccc2)cc1` [V0110, (2R,3S,4S)-4-hydroxy-2-[(4-methoxyphenyl)methyl]pyrrolidin-3-yl 2-phenylacetate], the IC50 in experiment [1] and in experiment [2] was less than 10 µM in each case.
For `COc1ccc(C[C@H]2NC[C@H](O)[C@H]2OC(=O)CC2COC2)cc1` [V0111, (2R,3S,4S)-4-hydroxy-2-[(4-methoxyphenyl)methyl]pyrrolidin-3-yl 2-(oxetan-3-yl)acetate], the IC50 in experiment [1], in experiment [2] and in experiment [3] was less than 10 µM each time.
As to `COc1ccc(C[C@H]2NC[C@H](O)[C@H]2OC(=O)CC2CC2)cc1` [V0113, (2R,3S,4S)-4-hydroxy-2-[(4-methoxyphenyl)methyl]pyrrolidin-3-yl 2-cyclopropylacetate], the IC50 in experiment [1], in experiment [2] and in experiment [3] was less than 10 µM in each case.
For `COc1ccc(C[C@H]2NC[C@H](O)[C@H]2OC(=O)CC[C@@H]2NC(=O)CNC2=O)cc1` [V000144, (2R,3S,4S)-4-hydroxy-2-[(4-methoxyphenyl)methyl]pyrrolidine-3-yl 3-[(2S)-3,6-dioxopiperazin-2-yl]propanoate], the IC50 in experiment [1] is less than 10 µM; in experiment [2], greater than 30 µM; in experiment [3], less than 10 µM.
For the molecule `COc1ccc(C[C@H]2NC[C@H](O)[C@H]2OC(=O)[C@H]2CN(Cc3ccccc3)CC23CNC3)cc1` [V186718, (2R,3S,4S)-4-hydroxy-2-[(4-methoxyphenyl)methyl]pyrrolidin-3-yl (8R)-6-benzyl-2,6-diazaspiro[3.4]octane-8-carboxylate], the IC50 in experiment [2] and in experiment [3] was greater than 30 µM each time.
Regarding `COc1ccc(C[C@H]2NC[C@H](O)[C@H]2OC(=O)C2CCOCC2)cc1` [V186763, (2R,3S,4S)-4-hydroxy-2-[(4-methoxyphenyl)methyl]pyrrolidin-3-yl oxane-4-carboxylate], the IC50 in experiment [2] and in experiment [3] was greater than 30 µM throughout.
For the molecule `COc1ccc(C[C@H]2NC[C@H](O)[C@H]2OC(=O)C2CC(O)C2)cc1` (stereo partly shown) [V186765], the half-inhibitory concentration (IC50) in experiment [1] was less than 10 µM; in experiment [2] it was 10 to 20 µM.
In the same order, the values of `COc1ccc(C[C@H]2NC[C@H](O)[C@H]2OC(=O)C2CCCS2)cc1` (stereo partly drawn) [V186774, (2R,3S,4S)-4-hydroxy-2-[(4-methoxyphenyl)methyl]pyrrolidin-3-yl thiolane-2-carboxylate] are 20 to 30 µM and greater than 30 µM.
Take `CCCC(CCC)C(=O)O[C@@H]1[C@@H](O)CN[C@@H]1Cc1ccc(OC)cc1` [V186780]: the IC50 in experiment [2] was greater than 30 µM.
On to `CC(=O)O[C@@H]1[C@@H](O)CN[C@@H]1Cc1ccc(-c2ccccc2)cc1` [V186811], for which the IC50 in experiment [1] and in experiment [2] was less than 10 µM each time.
Turning to `COc1ccc(C[C@H]2NC[C@H](O)[C@H]2OC(=O)[C@H]2CC[C@@H](O)CC2)cc1` [V186822, (2R,3S,4S)-4-hydroxy-2-[(4-methoxyphenyl)methyl]pyrrolidin-3-yl (1 s,4 s)-4-hydroxy cyclohexane-1-carboxylate], the half-maximal inhibitory concentration (IC50) in experiment [2] is greater than 30 µM.
Turning to `COc1ccc(C[C@H]2NC[C@H](O)[C@H]2OC(=O)C2CSSC2)cc1` [V186868, (2R,3S,4S)-4-hydroxy-2-[(4-methoxyphenyl)methyl]pyrrolidin-3-yl 1,2-dithiolane-4-carboxylate; trifluoroacetic acid], the IC50 in experiment [2] and in experiment [3] was greater than 30 µM throughout.
Turning to `COc1ccc(C[C@H]2NC[C@H](O)[C@H]2OC(=O)CCC2C(=O)N(C)CC(=O)N2C)cc1` (stereo partly drawn) [V186871, (2R,3S,4S)-4-hydroxy-2-[(4-methoxyphenyl)methyl]pyrrolidin-3-yl 3-(1,4-dimethyl-3,6-dioxopiperazin-2-yl)propanoate; trifluoroacetic acid], the IC50 in experiment [1] is 20 to 30 µM; in experiment [2] it was greater than 30 µM.
In the same order, the values of `COc1ccc(C[C@H]2NC[C@H](O)[C@H]2OC(=O)Cc2ccc(F)cc2)cc1` [V187054, (2R,3S,4S)-4-hydroxy-2-[(4-methoxyphenyl)methyl]pyrrolidin-3-yl 2-(4-fluorophenyl) acetate] are less than 10 µM and less than 10 µM.
Take `COc1ccc(C[C@H]2NC[C@H](O)[C@H]2OC(=O)CN2CC3(C2)CC(F)(F)C3)cc1` [V187067, (2R,3S,4S)-4-hydroxy-2-[(4-methoxyphenyl)methyl]pyrrolidin-3-yl 2-{6,6-difluoro-2-azaspiro[3.3]heptan-2-yl}acetate]: the half-maximal inhibitory concentration (IC50) was 10 to 20 µM in experiment [2] and less than 10 µM in experiment [3].
With `COc1ccc(C[C@H]2NC[C@H](O)[C@H]2OC(=O)Cc2ccc(F)c(Cl)c2)cc1` [V187164, (2R,3S,4S)-4-hydroxy-2-[(4-methoxyphenyl)methyl]pyrrolidin-3-yl 2-(3-chloro-4-fluorophenyl)acetate; trifluoroacetic acid], the IC50 in experiment [1] and in experiment [2] was less than 10 µM throughout.
Regarding `COc1ccc(C[C@H]2NC[C@H](O)[C@H]2OC(=O)COC2CC2)cc1` [V187169, (2R,3S,4S)-4-hydroxy-2-[(4-methoxyphenyl)methyl]pyrrolidin-3-yl 2-cyclopropoxyacetate; trifluoroacetic acid], the IC50 in experiment [1] and in experiment [2] was less than 10 µM each time.
For the molecule `COc1ccc(C[C@H]2NC[C@H](O)[C@H]2OC(=O)COC2CC(F)(F)C2)cc1` [V187171, (2R,3S,4S)-4-hydroxy-2-[(4-methoxyphenyl)methyl]pyrrolidin-3-yl 2-(3,3-difluorocyclobutoxy)acetate; trifluoroacetic acid], the IC50 in experiment [2] and in experiment [3] was less than 10 µM throughout.
For the molecule `COc1ccc(C[C@H]2NC[C@H](O)[C@H]2OC(=O)Cc2ccc(CC(C)C)cc2)cc1` [V187182, (2R,3S,4S)-4-hydroxy-2-[(4-methoxyphenyl)methyl]pyrrolidin-3-yl 2-[4-(2-methylpropyl)phenyl]acetate; trifluoroacetic acid], the IC50 in experiment [1] is greater than 30 µM; in experiment [3], 10 to 20 µM.
With `COc1ccc(C[C@H]2NC[C@H](O)[C@H]2OC(=O)CNc2c(NCc3ccccc3)c(=O)c2=O)cc1` [V187517, (2R,3S,4S)-4-hydroxy-2-[(4-methoxyphenyl)methyl]pyrrolidin-3-yl 2-{[2-(benzylamino)-3,4-dioxocyclobut-1-en-1-yl]amino}acetate; trifluoroacetic acid], the IC50 was 20 to 30 µM in experiment [2] and less than 10 µM in experiment [3].

The term IC50 denotes the point on the concentration scale where inhibition reaches its midpoint.
